US6960587B2, “Condensed pyrazindione derivatives as PDE inhibitors” (Lilly Icos LLC, priority 2000, dated 2005)
Structures can show the parent of a compound that is named as a salt.

Target: T1, recombinant human PDE5 (Homo sapiens, UniProt O76074)
T1 construct: host or cells: Saccharomyces cerevisiae strain BJ2-54 (ATCC 74465)
Assay: PDE5 inhibition, cGMP-PDE one-step assay
Type: biochemical
Conditions: in vitro

IC50 | Structure (SMILES)
0.718 µM | COc1cc2c(cc1OC)[C@@H](c1ccc3c(c1)OCO3)N1C(=O)CN(C)C(=O)[C@@H]1C2 [Example 10]
3.24 µM | CN1CC(=O)N2[C@H](c3ccc4c(c3)OCO4)c3[nH]cnc3C[C@@H]2C1=O (racemic) [Example 1, (+−, cis)-4-Benzo[1,3]dioxol-5-yl-7-methyl-3,4,6,7,8a,9-hexahydro-1,3,4a,7-tetraaza-cyclopenta[b]naphthalene-5,8-dione hydrochloride]
